We go through 15 compounds from US12083101B2, “Biaryl derivatives as YAP/TAZ-TEAD protein-protein interaction inhibitors” (Novartis AG, priority 2020, dated 2024).

The target in assay [1] is Avi-humanTEAD4 217-434 / Cy5 labeled humanYAP 60-100 (Homo sapiens (Human), UniProt Q15561). Description: TR-FRET YAP-TEAD4 in-vitro biochemical assay. To be noted: 1 nM Avi-humanTEAD4 217-434, 20 nM Cy5-humanYAP 60-100, 1 h room temperature. In kind it is binding.
The subject of assay [2] is NCI-H2052 Tet-On shYAP_2371 pLenti6 MCAT_Luc cells. Description: Proliferation assay (resazurin), NCI-H2052. In kind it is cell-based. To be noted: Homo sapiens, NCI-H2052, 72 h, 72 hours incubation. A digest of the protocol: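 The NCI-H2052 line carries a Tet-inducible shRNA against the YAP1 3′UTR and an MCAT luciferase reporter. The day after seeding, it received eleven 2-fold compound dilutions at 0.1% DMSO, and viability was read by resazurin fluorescence.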
For orientation: Alamar Blue is a resazurin reagent that responds to reducing activity.

The subject of assay [3] is MKN-45/Ubc-luc cells. Description: Proliferation assay (resazurin), MKN-45. In kind it is cell-based. To be noted: Homo sapiens, 72 hours incubation.
Assay [4] relates to NCI-H2052 Tet-On shYAP_2371 pLenti6 MCAT_Luc cells (YAP-dependent transcription). As to the kind of experiment: YAP reporter gene activity assay (MCAT-luciferase), NCI-H2052. To be noted: Homo sapiens, NCI-H2052, 24 h, 24 hours incubation, BrightGlo luminescence. In kind it is cell-based. A digest of the protocol: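 NCI-H2052 cells carrying an MCAT-luciferase reporter and a tetracycline-inducible YAP 3′UTR shRNA were treated with eleven 2-fold compound dilutions (0.1% DMSO) for 24 h at 37 °C. BrightGlo luminescence was background-subtracted and expressed as % of DMSO control. IC50 came from a four-parameter fit; MKN-45/Ubc-luc cells served as the specificity counterscreen.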

Assay [5] concerns MKN-45/Ubc-luc cells. As to the kind of experiment: Reporter gene specificity control (Ubc-luciferase), MKN-45. To be noted: Homo sapiens, MKN-45, 24 h, read-out: Reporter gene assay MKN-45 IC50 [μM], MKN-45/Ubc-luc cells (YAP deleted, specificity control), 24 hours incubation. A general note: In a reporter assay the amount or activity of a reporter protein is the signal.

Chain of Avi-humanTEAD4 217-434 / Cy5 labeled humanYAP 60-100 (Q15561 217-434): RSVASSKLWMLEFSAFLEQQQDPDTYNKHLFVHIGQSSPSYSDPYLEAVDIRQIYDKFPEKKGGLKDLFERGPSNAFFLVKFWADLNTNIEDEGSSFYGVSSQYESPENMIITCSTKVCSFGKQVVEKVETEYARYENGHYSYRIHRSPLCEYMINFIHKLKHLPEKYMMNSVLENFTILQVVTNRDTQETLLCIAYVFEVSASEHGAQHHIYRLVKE

As a reminder, the GI50 is the concentration that inhibits growth by half. For `NC(=O)c1ccc(OC(F)F)c(F)c1-c1c(Cl)c(F)cc2c1C[C@@](CN[C@@H]1CCC[C@H](O)C1)(c1ccccc1)O2` (atropisomer, axis not shown) [Example 83, 2-((2S,4S)-5-chloro-6-fluoro-2-((((1R,3S)-3-hydroxycyclohexyl)amino)methyl)-2-phenyl-2,3-dihydrobenzofuran-4-yl)-4-(difluoromethoxy)-3-fluorobenzamide], the figures for the IC50 (in assay [1]; in assay [4]; in the assay with MKN-45/Ubc-luc cells [5]) were 0.024 µM, 0.394 µM and greater than 10 µM, respectively. Further, the figures for the GI50 (in assay [2]; with MKN-45/Ubc-luc cells [3]) were 0.503 µM and greater than 10 µM, respectively.

`COc1ccc(C(N)=O)c(-c2c(Cl)ccc3c2[C@H](O)[C@@](CN)(c2ccccc2)O3)c1F` (atropisomer, axis not shown) [Example 86, 2-((2S,3S,4S)-2-(Aminomethyl)-5-chloro-3-hydroxy-2-phenyl-2,3-dihydrobenzofuran-4-yl)-3-fluoro-4-methoxybenzamide]: the IC50 is 0.003 µM in assay [1], 0.119 µM in assay [4] and greater than 10 µM in the assay with MKN-45/Ubc-luc cells [5]. Further, the GI50 in assay [2] is 0.129 µM; with MKN-45/Ubc-luc cells [3], greater than 10 µM.

Consider `COCCOc1ccc(C(N)=O)c(-c2c(Cl)ccc3c2[C@H](O)[C@@](CN)(c2ccccc2)O3)c1F` (atropisomer, axis not shown) [Example 88, 2-((2S,3S,4S)-2-(aminomethyl)-5-chloro-3-hydroxy-2-phenyl-2,3-dihydrobenzofuran-4-yl)-3-fluoro-4-(2-methoxyethoxy)benzamide], for which the IC50 in assay [1] is 0.007 µM; in assay [4], 0.091 µM; in the assay with MKN-45/Ubc-luc cells [5] it was greater than 10 µM. In addition, the GI50 in assay [2] was 0.242 µM; with MKN-45/Ubc-luc cells [3] it was greater than 10 µM.

In the case of `COc1ccc(C(N)=O)c(-c2c(Cl)ccc3c2[C@H](O)[C@@](CN)(c2ccccn2)O3)c1F` (atropisomer, axis not shown) [Example 89, 2-((2R,3S,4S)-2-(Aminomethyl)-5-chloro-3-hydroxy-2-(pyridin-2-yl)-2,3-dihydrobenzofuran-4-yl)-3-fluoro-4-methoxybenzamide], the IC50 is 0.019 µM in assay [1], 0.596 µM in assay [4] and greater than 10 µM in the assay with MKN-45/Ubc-luc cells [5]. Besides, the 50% growth inhibitory concentration (GI50) in assay [2] was 1.6 µM; in the assay on MKN-45/Ubc-luc cells [3], greater than 10 µM.

With `COc1cccc([C@@]2(CN)Oc3ccc(Cl)c(-c4c(C(N)=O)ccc(OC(F)F)c4F)c3[C@@H]2O)n1` (atropisomer, axis not shown) [Example 90, 2-((2R,3S,4S)-2-(Aminomethyl)-5-chloro-3-hydroxy-2-(6-methoxypyridin-2-yl)-2,3-dihydrobenzofuran-4-yl)-4-(difluoromethoxy)-3-fluorobenzamide], the IC50 is 0.022 µM in assay [1], 1.43 µM in assay [4] and greater than 10 µM with MKN-45/Ubc-luc cells [5]. The figures for the GI50 (in assay [2]; in the assay on MKN-45/Ubc-luc cells [3]) were 1.7 µM and greater than 10 µM, respectively.

With `COc1ccc(C(N)=O)c(-c2c(Cl)ccc3c2[C@H](O)[C@@](CN)(c2cccnc2OC)O3)c1F` (atropisomer, axis not shown) [Example 91, 2-((2S,3S,4S)-2-(Aminomethyl)-5-chloro-3-hydroxy-2-(2-methoxypyridin-3-yl)-2,3-dihydrobenzofuran-4-yl)-3-fluoro-4-methoxybenzamide], the values for the IC50 (in assay [1]; in assay [4]; with MKN-45/Ubc-luc cells [5]) were 0.022 µM, 0.96 µM and greater than 10 µM, respectively. The GI50 in assay [2] was 1.93 µM; in the assay with MKN-45/Ubc-luc cells [3], greater than 10 µM.

In the case of `NC(=O)c1ccc(OC(F)F)c(F)c1-c1c(Cl)ccc2c1[C@H](O)[C@@](CNC1CCC1)(c1ccccc1)O2` (atropisomer, axis not shown) [Example 96, 2-((2S,3S,4S)-5-Chloro-2-((cyclobutylamino)methyl)-3-hydroxy-2-phenyl-2,3-dihydrobenzofuran-4-yl)-4-(difluoromethoxy)-3-fluorobenzamide], the IC50 in assay [1] was 0.005 µM; in assay [4] it was 0.084 µM; in the assay on MKN-45/Ubc-luc cells [5], greater than 10 µM. In addition, the GI50 in assay [2] is 0.188 µM; in the assay with MKN-45/Ubc-luc cells [3], greater than 10 µM.

Regarding `COc1ccc(C(N)=O)c(-c2c(Cl)c(F)cc3c2[C@H](O)[C@@](CN)(c2ccccc2)O3)c1F` (atropisomer, axis not shown) [Example 97, 2-((2S,3S,4S)-2-(Aminomethyl)-5-chloro-6-fluoro-3-hydroxy-2-phenyl-2,3-dihydrobenzofuran-4-yl)-3-fluoro-4-methoxybenzamide], the results for the IC50 (in assay [1]; in assay [4]; in the assay on MKN-45/Ubc-luc cells [5]) were 0.004 µM, 0.065 µM and greater than 10 µM, respectively. The GI50 in assay [2] was 0.117 µM; in the assay with MKN-45/Ubc-luc cells [3], greater than 10 µM.

As to `NC(=O)c1ccc(OCCO)c(F)c1-c1c(Cl)c(F)cc2c1[C@H](O)[C@@](CNC1CCC1)(c1ccccc1)O2` (atropisomer, axis not shown) [Example 99, 2-((2S,3S,4S)-5-Chloro-2-((cyclobutylamino)methyl)-6-fluoro-3-hydroxy-2-phenyl-2,3-dihydrobenzofuran-4-yl)-3-fluoro-4-(2-hydroxyethoxy)benzamide], the figures for the IC50 (in assay [1]; in assay [4]; in the assay with MKN-45/Ubc-luc cells [5]) were 0.002 µM, 0.023 µM and greater than 10 µM, respectively. Moreover, the values for the concentration for 50% growth inhibition (GI50) (in assay [2]; with MKN-45/Ubc-luc cells [3]) were 0.026 µM and greater than 10 µM, respectively.

Take `C[C@H]1c2c(ccc(Cl)c2-c2c(C(N)=O)ccc(OC(F)F)c2F)O[C@]1(CN)c1ccccc1` (atropisomer, axis not shown) [Example 103, 2-((2S,3S,4S)-2-(aminomethyl)-5-chloro-3-methyl-2-phenyl-2,3-dihydrobenzofuran-4-yl)-4-(difluoromethoxy)-3-fluorobenzamide]: the values for the IC50 (in assay [1]; in assay [4]; with MKN-45/Ubc-luc cells [5]) were 0.005 µM, 0.108 µM and greater than 10 µM, respectively. Also, the concentration for 50% growth inhibition (GI50) in assay [2] was 0.172 µM; in the assay with MKN-45/Ubc-luc cells [3] it was greater than 10 µM.

`COCCOc1ccc(C(N)=O)c(-c2c(Cl)c(F)cc3c2[C@H](C)[C@@](CN)(c2ccccc2)O3)c1F` (atropisomer, axis not shown) [Example 106, 2-((2S,3S,4S)-2-(aminomethyl)-5-chloro-6-fluoro-3-methyl-2-phenyl-2,3-dihydrobenzofuran-4-yl)-3-fluoro-4-(2-methoxyethoxy)benzamide]: the IC50 in assay [1] was less than 0.001 µM; in assay [4], 0.014 µM; with MKN-45/Ubc-luc cells [5] it was greater than 10 µM. Further, the concentration for 50% growth inhibition (GI50) in assay [2] is 0.013 µM; in the assay on MKN-45/Ubc-luc cells [3], greater than 10 µM.

In the case of `COc1ccc(C(N)=O)c(-c2c(Cl)c(F)cc3c2[C@H](C)[C@@](CN)(c2ccccn2)O3)c1F` (atropisomer, axis not shown) [Example 109, 2-((2R,3S,4S)-2-(aminomethyl)-5-chloro-6-fluoro-3-methyl-2-(pyridin-2-yl)-2,3-dihydrobenzofuran-4-yl)-3-fluoro-4-methoxybenzamide], the IC50 in assay [1] is 0.003 µM; in assay [4], 0.075 µM; with MKN-45/Ubc-luc cells [5] it was greater than 10 µM. Besides, the GI50 in assay [2] is 0.086 µM; with MKN-45/Ubc-luc cells [3], greater than 10 µM.

Turning to `CNC[C@]1(c2ccccc2)Oc2cc(F)c(Cl)c(-c3c(C(N)=O)ccc(OCCO)c3F)c2[C@@H]1C` (atropisomer, axis not shown) [Example 110, 2-((2S,3S,4S)-5-Chloro-6-fluoro-3-methyl-2-((methylamino)methyl)-2-phenyl-2,3-dihydrobenzofuran-4-yl)-3-fluoro-4-(2-hydroxyethoxy)benzamide], the results for the IC50 (in assay [1]; in assay [4]; with MKN-45/Ubc-luc cells [5]) were 0.001 µM, 0.014 µM and greater than 4 µM, respectively. Further, the GI50 was 0.027 µM in assay [2] and greater than 4 µM in the assay with MKN-45/Ubc-luc cells [3].

`CNC[C@]1(c2ccccc2)Oc2cc(F)c(Cl)c(-c3c(C(=O)NC)ccc(OCCO)c3F)c2[C@@H]1C` (atropisomer, axis not shown) [Example 113, 2-((2S,3S,4S)-5-Chloro-6-fluoro-3-methyl-2-((methylamino)methyl)-2-phenyl-2,3-dihydrobenzofuran-4-yl)-3-fluoro-4-(2-hydroxyethoxy)-N-methylbenzamide]: the values for the IC50 (in assay [1]; in assay [4]; in the assay on MKN-45/Ubc-luc cells [5]) were 0.002 µM, 0.021 µM and greater than 10 µM, respectively. In addition, the GI50 in assay [2] is 0.029 µM; with MKN-45/Ubc-luc cells [3] it was greater than 10 µM.

On to `C[C@H](O)COc1ccc(C(N)=O)c(-c2c(Cl)c(F)cc3c2[C@H](C)[C@@](CN[C@H]2CC[C@](C)(O)CC2)(c2ccccc2)O3)c1F` (atropisomer, axis not shown) [Example 114a, 2-((2S,3S,4S)-5-chloro-6-fluoro-2-((((trans)-4-hydroxy-4-methylcyclohexyl)amino)methyl)-3-methyl-2-phenyl-2,3-dihydrobenzofuran-4-yl)-3-fluoro-4-((S)-2-hydroxypropoxy)benzamide], for which the results for the IC50 (in assay [1]; in assay [4]; with MKN-45/Ubc-luc cells [5]) were 0.002 µM, 0.018 µM and greater than 10 µM, respectively. Besides, the GI50 was 0.023 µM in assay [2] and greater than 10 µM in the assay with MKN-45/Ubc-luc cells [3].
